Test results as given in the supplement of paper PMC4862054.

Experiments:
BT-474 = conditions: 72 h
How it was run: (§1)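 EC50 was fitted from dose-response curves and censored at the highest concentration tested. To build those curves, breast cancer cell lines (20 µl suspension) were seeded into 384-well plates containing compound at 5 concentrations in 10-fold steps over a compound-specific 10,000-fold range and incubated for 72 h. Readouts were CellTox Green fluorescence (485/520 nm) for cell death and then CellTiter-Glo luminescence for viability, with each plate normalised to 0.1 % DMSO and a positive kill control.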

BT-549 [1] = conditions: 72 h
How it was run: as §1

CAL-51 = conditions: 72 h
How it was run: as §1

CAL-85-1 = conditions: 72 h
How it was run: as §1

HCC1937 [2] = conditions: 72 h
How it was run: as §1

MDA-MB-231 [3] = conditions: 72 h
How it was run: as §1

MDA-MB-453 = conditions: 72 h
How it was run: as §1

MDA-MB-468 [4] = conditions: 72 h
How it was run: as §1

SK-BR-3 [5] = conditions: 72 h
How it was run: as §1

BT-549 [6] = conditions: 72 h; remark: listed apart in the source
How it was run: (§2)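 The reported EC50 was fitted from percent-inhibition dose-response curves and censored at the highest concentration. Breast cancer cell lines (20 µl suspension) were added to 384-well plates containing compound in 5 µl medium and incubated 72 h, and viability was read with 2.5 µl CellTiter-Blue over 2 h at 37 °C at 560/590 nm. Each plate was normalised to vehicle and a positive kill control and checked by Z'-factor, and rows with zero drug sensitivity score were dropped.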

CAL-120 [7] = conditions: 72 h
How it was run: as §2

HCC1143 [8] = conditions: 72 h
How it was run: as §2

HCC1599 [9] = conditions: 72 h
How it was run: as §2

HCC1937 [10] = conditions: 72 h; remark: listed apart in the source
How it was run: as §2

Hs578T [11] = conditions: 72 h
How it was run: as §2

MDA-MB-231 [12] = conditions: 72 h; remark: listed apart in the source
How it was run: as §2

MDA-MB-436 [13] = conditions: 72 h
How it was run: as §2

MDA-MB-468 [14] = conditions: 72 h; remark: listed apart in the source
How it was run: as §2

MFM-223 [15] = conditions: 72 h
How it was run: as §2

SK-BR-3 [16] = conditions: 72 h; remark: listed apart in the source
How it was run: as §2

HCC1143 [17] = assay: normalised viability (% of control), CellTiter-Blue; higher = more viable cells (about 100 = DMSO control); conditions: incubation time: 72 h
How it was run: (§3)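 Seeded at 20 µl suspension per well onto compound-loaded 384-well plates, breast cancer cell lines were incubated 72 h. CellTiter-Blue fluorescence at 560/590 nm was then read, with each plate normalised to vehicle (100) and a positive kill control (0). Normalised viability is reported at a single listed concentration of the series.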

HCC1599 [18] = assay: as above; conditions: incubation time: 72 h
How it was run: as §3

HCC1937 [19] = assay: as above; conditions: incubation time: 72 h
How it was run: as §3

SK-BR-3 [20] = assay: as above; conditions: incubation time: 72 h
How it was run: as §3

CAL-120 [21] = conditions: 72 h; remark: listed apart in the source
How it was run: as §1

CAL-148 = conditions: 72 h
How it was run: as §1

DU-4475 = conditions: 72 h
How it was run: as §1

HCC1143 [22] = conditions: 72 h; remark: listed apart in the source
How it was run: as §1

HCC1599 [23] = conditions: 72 h; remark: listed apart in the source
How it was run: as §1

HDQ-P1 = conditions: 72 h
How it was run: as §1

Hs578T [24] = conditions: 72 h; remark: listed apart in the source
How it was run: as §1

MCF-10A = conditions: 72 h
How it was run: as §1

MDA-MB-436 [25] = conditions: 72 h; remark: listed apart in the source
How it was run: as §1

MFM-223 [26] = conditions: 72 h; remark: listed apart in the source
How it was run: as §1

COC1=CC(c2cc3ccccc3[nH]2)=N/C1=C\c1[nH]c(C)cc1C [Obatoclax]
EC50, CellTiter-Glo (BT-474): 128 nM
EC50, CellTiter-Glo (BT-549 [1]): 3600 nM
EC50, CellTiter-Glo (CAL-51): 3920 nM
EC50, CellTiter-Glo (CAL-85-1): 126 nM
EC50, CellTiter-Glo (HCC1937 [2]): 153 nM
EC50, CellTiter-Glo (MDA-MB-231 [3]): 131 nM
EC50, CellTiter-Glo (MDA-MB-453): 2620 nM
EC50, CellTiter-Glo (MDA-MB-468 [4]): 664 nM
EC50, CellTiter-Glo (SK-BR-3 [5]): > 10000 nM
EC50, CellTiter-Blue viability (BT-549 [6]): 192 nM
EC50, CellTiter-Blue viability (CAL-120 [7]): 25.9 nM
EC50, CellTiter-Blue viability (HCC1143 [8]): 171 nM
EC50, CellTiter-Blue viability (HCC1599 [9]): 678 nM
EC50, CellTiter-Blue viability (HCC1937 [10]): 22.4 nM
EC50, CellTiter-Blue viability (Hs578T [11]): 162 nM
EC50, CellTiter-Blue viability (MDA-MB-231 [12]): 73.2 nM
EC50, CellTiter-Blue viability (MDA-MB-436 [13]): 99.1 nM
EC50, CellTiter-Blue viability (MDA-MB-468 [14]): 105 nM
EC50, CellTiter-Blue viability (MFM-223 [15]): 1010 nM
EC50, CellTiter-Blue viability (SK-BR-3 [16]): 38.1 nM
normalised viability (HCC1143 [17]; 10 nM): 69%
normalised viability (HCC1143 [17]; 1000 nM): 47.1%
normalised viability (HCC1143 [17]; 10000 nM): 33.1%
normalised viability (HCC1599 [18]; 10 nM): 95.4%
normalised viability (HCC1599 [18]; 1000 nM): 64%
normalised viability (HCC1599 [18]; 10000 nM): 44.9%
normalised viability (HCC1937 [19]; 10 nM): 63%
normalised viability (HCC1937 [19]; 1000 nM): 21.4%
normalised viability (HCC1937 [19]; 10000 nM): 20%
normalised viability (SK-BR-3 [20]; 10 nM): 80.2%
normalised viability (SK-BR-3 [20]; 1000 nM): 27.1%
normalised viability (SK-BR-3 [20]; 10000 nM): 21.2%

COC(=O)C[C@](O)(CCCC(C)(C)O)C(=O)O[C@@H]1C(OC)=C[C@]23CCCN2CCc2cc4c(cc2[C@H]13)OCO4 [Omacetaxine]
EC50, CellTiter-Glo (BT-474): 299 nM
EC50, CellTiter-Glo (BT-549 [1]): 50.3 nM
EC50, CellTiter-Glo (CAL-120 [21]): 93.8 nM
EC50, CellTiter-Glo (CAL-148): 56.8 nM
EC50, CellTiter-Glo (CAL-51): 37.5 nM
EC50, CellTiter-Glo (CAL-85-1): 36.2 nM
EC50, CellTiter-Glo (DU-4475): 14.4 nM
EC50, CellTiter-Glo (HCC1143 [22]): 80.6 nM
EC50, CellTiter-Glo (HCC1599 [23]): 41.1 nM
EC50, CellTiter-Glo (HCC1937 [2]): 64.3 nM
EC50, CellTiter-Glo (HDQ-P1): 39.1 nM
EC50, CellTiter-Glo (Hs578T [24]): 68.3 nM
EC50, CellTiter-Glo (MCF-10A): 116 nM
EC50, CellTiter-Glo (MDA-MB-231 [3]): 138 nM
EC50, CellTiter-Glo (MDA-MB-436 [25]): 22.6 nM
EC50, CellTiter-Glo (MDA-MB-453): 73.9 nM
EC50, CellTiter-Glo (MDA-MB-468 [4]): 45.5 nM
EC50, CellTiter-Glo (MFM-223 [26]): 102 nM
EC50, CellTiter-Glo (SK-BR-3 [5]): 86.7 nM
EC50, CellTiter-Blue viability (BT-549 [6]): 32.1 nM
EC50, CellTiter-Blue viability (CAL-120 [7]): 16.9 nM
EC50, CellTiter-Blue viability (HCC1143 [8]): 46.9 nM
EC50, CellTiter-Blue viability (HCC1599 [9]): 18 nM
EC50, CellTiter-Blue viability (HCC1937 [10]): 9.68 nM
EC50, CellTiter-Blue viability (Hs578T [11]): 44 nM
EC50, CellTiter-Blue viability (MDA-MB-231 [12]): 36.3 nM
EC50, CellTiter-Blue viability (MDA-MB-436 [13]): 26.6 nM
EC50, CellTiter-Blue viability (MDA-MB-468 [14]): 35.7 nM
EC50, CellTiter-Blue viability (MFM-223 [15]): 45.3 nM
EC50, CellTiter-Blue viability (SK-BR-3 [16]): 34.3 nM

CC(=O)O[C@H]1C(=O)[C@@]2(C)[C@H]([C@H](OC(=O)c3ccccc3)[C@]3(O)C[C@H](OC(=O)[C@H](O)[C@@H](NC(=O)c4ccccc4)c4ccccc4)C(C)=C1C3(C)C)[C@]1(OC(C)=O)CO[C@@H]1C[C@@H]2O [Paclitaxel]
EC50, CellTiter-Glo (BT-474): 7.94 nM
EC50, CellTiter-Glo (BT-549 [1]): 4.79 nM
EC50, CellTiter-Glo (CAL-120 [21]): 6.96 nM
EC50, CellTiter-Glo (CAL-148): 1.96 nM
EC50, CellTiter-Glo (CAL-51): 7.96 nM
EC50, CellTiter-Glo (CAL-85-1): 4.73 nM
EC50, CellTiter-Glo (DU-4475): 44 nM
EC50, CellTiter-Glo (HCC1143 [22]): 3.37 nM
EC50, CellTiter-Glo (HCC1599 [23]): 16.9 nM
EC50, CellTiter-Glo (HCC1937 [2]): 2.62 nM
EC50, CellTiter-Glo (HDQ-P1): 2.81 nM
EC50, CellTiter-Glo (Hs578T [24]): 6.32 nM
EC50, CellTiter-Glo (MCF-10A): 3.65 nM
EC50, CellTiter-Glo (MDA-MB-231 [3]): 10.7 nM
EC50, CellTiter-Glo (MDA-MB-436 [25]): 4.07 nM
EC50, CellTiter-Glo (MDA-MB-453): 22.6 nM
EC50, CellTiter-Glo (MDA-MB-468 [4]): 3.47 nM
EC50, CellTiter-Glo (MFM-223 [26]): 5.86 nM
EC50, CellTiter-Glo (SK-BR-3 [5]): 0.72 nM
EC50, CellTiter-Blue viability (BT-549 [6]): 2.7 nM
EC50, CellTiter-Blue viability (CAL-120 [7]): 3.55 nM
EC50, CellTiter-Blue viability (HCC1143 [8]): 7.4 nM
EC50, CellTiter-Blue viability (HCC1599 [9]): 111 nM
EC50, CellTiter-Blue viability (HCC1937 [10]): 4.22 nM
EC50, CellTiter-Blue viability (Hs578T [11]): 5.2 nM
EC50, CellTiter-Blue viability (MDA-MB-231 [12]): 2.29 nM
EC50, CellTiter-Blue viability (MDA-MB-436 [13]): 4.49 nM
EC50, CellTiter-Blue viability (MDA-MB-468 [14]): 2.7 nM
EC50, CellTiter-Blue viability (MFM-223 [15]): 4.49 nM
EC50, CellTiter-Blue viability (SK-BR-3 [16]): 2.93 nM
normalised viability (HCC1143 [17]; 1 nM): 104%
normalised viability (HCC1143 [17]; 100 nM): 34.5%
normalised viability (HCC1143 [17]; 1000 nM): 32.5%
normalised viability (HCC1599 [18]; 1 nM): 113%
normalised viability (HCC1599 [18]; 100 nM): 86.7%
normalised viability (HCC1599 [18]; 1000 nM): 69.6%
normalised viability (HCC1937 [19]; 1 nM): 91.1%
normalised viability (HCC1937 [19]; 100 nM): 15.3%
normalised viability (HCC1937 [19]; 1000 nM): 19.7%
normalised viability (SK-BR-3 [20]; 1 nM): 84.8%
normalised viability (SK-BR-3 [20]; 100 nM): 13.9%
normalised viability (SK-BR-3 [20]; 1000 nM): 12.9%

FC(F)c1nc2ccccc2n1-c1nc(N2CCOCC2)nc(N2CCOCC2)n1 [ZSTK474]
EC50, CellTiter-Glo (BT-474): 3040 nM
EC50, CellTiter-Glo (BT-549 [1]): 396 nM
EC50, CellTiter-Glo (CAL-120 [21]): 958 nM
EC50, CellTiter-Glo (CAL-148): 1260 nM
EC50, CellTiter-Glo (CAL-51): 1010 nM
EC50, CellTiter-Glo (CAL-85-1): 779 nM
EC50, CellTiter-Glo (DU-4475): 6590 nM
EC50, CellTiter-Glo (HCC1143 [22]): 1130 nM
EC50, CellTiter-Glo (HCC1599 [23]): 538 nM
EC50, CellTiter-Glo (HCC1937 [2]): 2730 nM
EC50, CellTiter-Glo (HDQ-P1): 436 nM
EC50, CellTiter-Glo (Hs578T [24]): 493 nM
EC50, CellTiter-Glo (MCF-10A): 540 nM
EC50, CellTiter-Glo (MDA-MB-231 [3]): 720 nM
EC50, CellTiter-Glo (MDA-MB-436 [25]): 498 nM
EC50, CellTiter-Glo (MDA-MB-453): 492 nM
EC50, CellTiter-Glo (MDA-MB-468 [4]): 677 nM
EC50, CellTiter-Glo (MFM-223 [26]): 737 nM
EC50, CellTiter-Glo (SK-BR-3 [5]): 206 nM
